Key:
yeast strain MaV203 = assay: Rescue of GAL4 (TAG) expression by DANSYL-O-RS/O-tRNA pair, growth in the absence of uracil; assay type: cell-based; conditions: MaV203 with DANSYL-O-RS, suppressor O-tRNA and GAL4 TAG
From the text: The yeast strain MaV203 was transfected with plasmids coding for the DANSYL-O-RS (SEQ ID NO:12, derived from E. coli), suppressor O-tRNA (SEQ ID NO:5 derived from E. coli) and a marker gene, GAL4, containing nonsense TAG codons. Yeast harboring a functional DANSYL-RSOR and suppressor tRNA OR will “rescue” expression of GAL4. The MAV203 yeast strain contains the URA3 gene (required for uracil biosynthesis) under control of the GAL4 promoter. When grown in the absence of uracil, MAV203 yeast will not grow unless “rescue” of GAL4 expression occurs.

CAT-TAG in CHO cells = assay: CAT-TAG expression in transfected CHO cells (FAST CAT assay); assay type: cell-based; conditions: cells with O-RS/O-tRNA and CAT-TAG, grown in the presence of dansyl-alanine
From the text: We first redesigned the suppressor O-tRNA gene to make it suitable for expression in mammalian cells by altering the 5′ UTR, mutating the promoter regions and generating a tandem repeat, thereby forming SEQ ID NO:6, and subcloned the O-RS gene (SEQ ID NO:12) into a mammalian expression vector. We transformed CHO cells with the plasmids encoding the modified O-RS/O-tRNA genes and a marker gene, Chloramphenicol Acetyltransferase (“CAT”), containing a nonsense TAG codon (“CAT-TAG”). Expression of CAT-TAG was assessed using a fluorescent-based assay (FAST CAT, Invitrogen, Inc.) that measures the conversion of chloramphenicol-BODIPY (FL-CM) to 3-acetyl-chloramphenicol-BODIPY (FL-AcCM) by thin layer chromatography. […] As a positive control, cells were transfected with wildtype CAT cDNA.

CN(C)c1cccc2c(S(=O)(=O)NC[C@H](N)C(=O)O)cccc12
growth of transformed yeast in the absence of uracil (yeast strain MaV203): Growth was only observed when the transformed yeast were grown in the presence of dansyl-alanine
CAT activity of transfected CHO cells (CAT-TAG in CHO cells): expressed significant CAT activity

— patent US20090081669A1 (ENCODE BIO, INC., priority 2006, published 2009)
